The values that follow come from patent publication US20100130598A1, “METHODS FOR INDUCING PROGRAMMED CELL DEATH” (Novogen Research Pty Ltd., priority 2008, published 2010).

The test system of test [1] is HPAC cells. The experiment in a line: Apoptosis/necrosis by FACS (Annexin-V-FITC/PI), HPAC. Format: cell-based, human. The procedure:
(§1) Cells. Human pancreatic cell lines HPAC, MIAPaCa-2 and PANC-1 were obtained from the ATCC. (Manassas, Va.). The cells were maintained in DMEM media with Gln and high glucose (Mediatech, Manassas, Va.) with 10% fetal bovine serum (FBS, HyClone, Logan, Utah) and pencillin/streptomycin.
(§2) FACS Analysis. Apoptosis was measured by FACS analysis using Annexin-V-FITC and propidium iodide (PI) (Biovision, Mountain View, Calif.) as probes (Ahn et al., 2003). Mitochondrial membrane potential was measured by FACS analysis using JC-1 (Biovision) as a probe (Ahn et al., 2003). Cell cycle was analyzed on ethanol-fixed, RNaseA-treated cells staining with PI. In each spectrum, 10,000 gated events were recorded and analyzed with a FACSCalibur (BD Biosciences. San Jose, Calif.). All experiments were done in triplicate, error bars represent one standard deviation. Caspase inhibitor I (zVAD-fmk) was obtained from Calbiochem.
For orientation: Flow cytometry measures light scatter and fluorescence of single cells or particles in a stream.

Test [2] has as its system Caspase 2, 3 and 9 in MIAPaCa-2 cells. The experiment in a line: In situ caspase activity by flow cytometry, MIAPaCa-2. In kind it is cell-based, human. Conditions: MIAPaCa-2, 10 μM, after 48 hrs. The procedure: as §1
Caspase Activity After 48 h treatment with 10 μM Compound 10, HPAC, MIAPaCa-2 and PANC-1 cells were harvested by trypsinization and resuspended in DMEM media with 10% FBS. The cells were incubated with caspase substrates for 1 h at 37° C., 5% CO2, then probed with Annexin-V-Cy5 and sytox blue. Caspase +ve cells were gated as shown in the histograms and these cells are indicated on the Annexin-V-Cy5/sytox blue spectra as blue cells. In situ caspase activity was assayed using fluorescent substrates. For Caspase 2, FITC-VDVAD-fmk (Biovision K182-100), for Caspase 3, FITC-DEVD-fmk (K183-100) and for Caspase 9, FITC-LEHD-fmk (K199-100) was used. These substrates bind irreversibly to their respective activated caspases, and caspase activation was quantitated by flow cytometry. […] Caspase activation, apoptosis and necrosis were measured simultaneously using a violet, blue and red laser in a BD LSRII flow cytometer.

Test [3] deals with PANC-1 cells. The experiment in a line: Mitochondrial membrane potential by FACS (JC-1), PANC-1. In kind it is cell-based, human. Conditions: PANC-1, dose-dependent, 48 hrs of treatment. The method, then: as §1, §2
Test [4] deals with PANC-1 cells. The experiment in a line: Cell cycle analysis by FACS (PI), PANC-1. Format: cell-based, human. Conditions: PANC-1, 10 μM. The method, then: as §1, §2
In test [5] the test system is HPAC cells. The test is described as follows: Cell cycle analysis by FACS (PI), HPAC. The settings on record: 10 μM, accompanied with an arrest in G0/G1, transient. In kind it is cell-based, human. The method, then: as §1, §2
For a further test, the system named is Beclin-1 / Bcl2. The experiment in a line: Beclin-1 immunoprecipitation from mitochondrial fraction, probed for Bcl2 and Bak. Format: cell-based, human. Conditions: 10 μg/ml, 1 h. The procedure:
(§3) SDS-PAGE and Western blots. Cell lysates (20 μg protein) were denatured in sample buffer (2.5% SDS, 10% glycerol, 5% β-mercapto-ethanol, 0.15 M Tris (pH=6.8) and 0.01% bromophenol blue) and subjected to 12% SDS-PAGE as previously described (Kamsteeg et al, 2003). The following antibodies and concentrations were used: mouse anti-XIAP (BD, 1:1,000), rabbit anti-MAP LC3 (1:200), rabbit anti-actin (Sigma, 1:10,000), rabbit anti-phosphorylated Akt (Cell Signaling, 1:1,000), rabbit anti-Akt (Cell Signaling, 1:1000), rabbit anti-phosphorylated mTOR (Cell Signaling, 1:1000), rabbit anti-mTOR (Cell Signaling, 1:1000), rabbit anti-cytochrome c (Clontech Laboratories, Inc, Mountainview, Calif., 1:100), rabbit anti-Omi (R&D Systems, Minneapolis, Minn., 1:5000), rabbit anti-Bid (Cell Signaling, 1:1000), mouse anti-Bax (BD Pharmingen, 1:250), rabbit anti-VDAC (Sigma Aldrich, 1:2000), mouse anti-Bcl2 (BD Pharmingen, 1:500), rabbit anti-AIF (Sigma Aldrich, 1:1000), rabbit anti-EndoG (Sigma Aldrich, 1:1000), mouse anti-topoisomerase I (BD Pharmingen, 1:10,000). Proteins were visualized using enhanced chemiluminescence (Pierce, Rockford Ill.).
Immunoprecipitation. […]

Test [6] deals with phospho-S6 kinase (p-S6K). The test is described as follows: Western blot of lysed xenograft tumors for p-S6k. Format: in vivo, NCR nude mice. The settings on record: tumors from treated animals vs vehicle control. The method, then:
as §3
Mouse xenograft studies. […] Tumor size was determined by caliper measurements and anti-tumor activity was analyzed with respect to maximal tumor inhibition (treated/control, T/C) as described previously (Kamsteeg et al, 2003).

The mark [7] stands for this setting: dose-escalating, 48 hr exposure.

Turning to `COc1ccc(C2c3ccc(O)cc3OCC2c2ccc(O)cc2)cc1` (stereo not drawn) [Compound 10, 3-(4-hydroxyphenyl)-4-(4-methoxyphenyl)chroman-7-ol], the “effect of zVAD-fmk pre-treatment on induced apoptosis” value in the test with HPAC cells [1] (10 μM zVAD-fmk 1 hr before 10 μM Compound 10, 42-46 h) is on record as “did not inhibit”. For the same molecule, the “effect of zVAD-fmk pre-treatment on induced necrosis” value in the test on HPAC cells [1] (10 μM zVAD-fmk 1 hr pre-treatment, 10 μM Compound 10 or Fas-activating antibody) was “inhibited”. Moreover, in the test on HPAC cells [1] (setting [7]), the apoptosis entry was “induced apoptosis in a dose-dependent fashion” and the necrosis result is “Very little necrosis”. Besides, in test [2], the “caspase 2, 3 and 9 activation” value is given as “activated”. Moreover, the mitochondrial depolarization entry with PANC-1 cells [3] is “depolarized”. Further, in the test on PANC-1 cells [4], the “time of G2/M arrest post treatment” value is 4 to 24 h and the “time remained in G2/M arrest” value is on record as “at least 48 hrs”. For the same molecule, the G2/M arrest result with HPAC cells [5] is on record as “less pronounced”.

Take `COc1ccc(C2c3ccc(O)c(C)c3OCC2c2ccc(O)cc2)cc1` (stereo not drawn) [Compound 1, 3-(4-hydroxyphenyl)-4-(4-methoxyphenyl)-8-methylchroman-7-ol]: the “Bak in complex with Beclin-1” value in the test with Beclin-1 / Bcl2 was “not observed”. Moreover, the “Bcl2 in complex with Beclin-1” value with Beclin-1 / Bcl2 (vs no treatment control) was “Higher levels”. In addition, the p-S6k in tumors result in test [6] is listed as “significant decrease”.
